Key:
[1] = drug substance in UPTRAVI, per AusPAR, cited from earlier work
[2] = PXRD study of crystal form stability on storage; type: physicochemical; settings: sealed vial under nitrogen atmosphere, room temperature and ambient humidity
Method: Selexipag Form APO-I can be characterized by a PXRD diffractogram comprising, among other peaks, characteristic peaks, expressed in degrees 2θ (±0.2°), at 7.5°, 12.4° and 21.7°. Preferably, the PXRD diffractogram further comprises at least three peaks, expressed in degrees 2θ (±0.2°), selected from the group consisting of 9.4°, 11.6°, 14.1°, 15.1°, 16.7°, 17.2°, 18.3°, 19.9°, 22.3° and 23.6°. More preferably, the PXRD diffractogram further comprises peaks, expressed in degrees 2θ (±0.2°), at 9.4°, 11.6°, 14.1°, 15.1°, 16.7°, 17.2°, 18.3°, 19.9°, 22.3° and 23.6°. PXRD studies of samples of Selexipag Form APO-I maintained under a nitrogen atmosphere in a sealed vial have shown that this crystal form is stable following storage at room temperature and ambient humidity for at least 14 days. PXRD diffractograms were recorded on a Bruker D8 Discover powder X-ray diffractometer (Bruker-AXS, Karlsruhe, Germany). The generator was a Micro-focus X-ray source (IMSTube: Cu tube with 1.54184 Å) with a voltage of 50 kV and current of 1.00 mA, using a divergence slit of 0.3 mm and collimator of 0.3 mm. For each sample, one frame was collected using a still scan with a Pilatus 3R-100 kA detector at the distance of 154.72 mm from the sample. Raw data were evaluated using the program EVA (Bruker-AXS, Karlsruhe, Germany).

Row | Structure (SMILES) | Biopharmaceutics Classification System (BCS) class ([1]; Class II = high permeability but low solubility) | solubility behaviour [1] | crystal form stable following storage (PXRD) [2]
1 | CC(C)N(CCCCOCC(=O)NS(C)(=O)=O)c1cnc(-c2ccccc2)c(-c2ccccc2)n1 [Form I, 2-{4-[N-(5,6-diphenylpyrazin-2-yl)-N-isopropylamino]butyloxy}-N-(methylsulfonyl)acetamide] | Class II | pH dependent solubility | 
2 | CC(C)N(CCCCOCC(=O)NS(C)(=O)=O)c1cnc(-c2ccccc2)c(-c2ccccc2)n1 [Selexipag Form APO-I, 2-{4-[N-(5,6-diphenylpyrazin-2-yl)-N-isopropylamino]butyloxy}-N-(methylsulfonyl)acetamide] |  |  | at least 14 days
